Values quoted from earlier work in patent US20230310615A1, “OPHTHALMIC COMPOSITIONS” (Alcon Inc., priority 2022, published 2023).

Details: dissociation constant of the dibasic compound

pKa1: 6.8
pKa2: 9.5
Structure (SMILES): OCC(CO)(CO)NCCCNC(CO)(CO)CO [bis-TRIS-propane, 1,3-bis(tris[hydroxymethyl]methylamino)propane]
